Measurements as given in paper PMC10089224, “A macrocyclic peptide inhibitor traps MRP1 in a catalytically incompetent conformation” (Proceedings of the National Academy of Sciences of the …, 2023).
“Also recorded” adds a separate entry of the source. Where a SMILES comes first, the peptide text is derived from it. Bridges are numbered along the chain shown (N, C = ends). [ ]: non-standard residue; d: D form.

How the values were obtained:
bMRP1 = molecular target: T1, bMRP1 (Bos taurus, UniProt Q8HXQ5); assay: ATPase activity of detergent-solubilized bMRP1, inhibition by CPI1 (basal and LTC4-stimulated); assay type: biochemical, bovine
T1 construct: eGFP (C, cleaved yes); PreScission protease site (remnant after cleavage) (C); made in house; host or cells: HEK293S GnTI- cells infected with baculovirus (BacMam) made in Sf9 cells
T1 sequence (Q8HXQ5 whole entry): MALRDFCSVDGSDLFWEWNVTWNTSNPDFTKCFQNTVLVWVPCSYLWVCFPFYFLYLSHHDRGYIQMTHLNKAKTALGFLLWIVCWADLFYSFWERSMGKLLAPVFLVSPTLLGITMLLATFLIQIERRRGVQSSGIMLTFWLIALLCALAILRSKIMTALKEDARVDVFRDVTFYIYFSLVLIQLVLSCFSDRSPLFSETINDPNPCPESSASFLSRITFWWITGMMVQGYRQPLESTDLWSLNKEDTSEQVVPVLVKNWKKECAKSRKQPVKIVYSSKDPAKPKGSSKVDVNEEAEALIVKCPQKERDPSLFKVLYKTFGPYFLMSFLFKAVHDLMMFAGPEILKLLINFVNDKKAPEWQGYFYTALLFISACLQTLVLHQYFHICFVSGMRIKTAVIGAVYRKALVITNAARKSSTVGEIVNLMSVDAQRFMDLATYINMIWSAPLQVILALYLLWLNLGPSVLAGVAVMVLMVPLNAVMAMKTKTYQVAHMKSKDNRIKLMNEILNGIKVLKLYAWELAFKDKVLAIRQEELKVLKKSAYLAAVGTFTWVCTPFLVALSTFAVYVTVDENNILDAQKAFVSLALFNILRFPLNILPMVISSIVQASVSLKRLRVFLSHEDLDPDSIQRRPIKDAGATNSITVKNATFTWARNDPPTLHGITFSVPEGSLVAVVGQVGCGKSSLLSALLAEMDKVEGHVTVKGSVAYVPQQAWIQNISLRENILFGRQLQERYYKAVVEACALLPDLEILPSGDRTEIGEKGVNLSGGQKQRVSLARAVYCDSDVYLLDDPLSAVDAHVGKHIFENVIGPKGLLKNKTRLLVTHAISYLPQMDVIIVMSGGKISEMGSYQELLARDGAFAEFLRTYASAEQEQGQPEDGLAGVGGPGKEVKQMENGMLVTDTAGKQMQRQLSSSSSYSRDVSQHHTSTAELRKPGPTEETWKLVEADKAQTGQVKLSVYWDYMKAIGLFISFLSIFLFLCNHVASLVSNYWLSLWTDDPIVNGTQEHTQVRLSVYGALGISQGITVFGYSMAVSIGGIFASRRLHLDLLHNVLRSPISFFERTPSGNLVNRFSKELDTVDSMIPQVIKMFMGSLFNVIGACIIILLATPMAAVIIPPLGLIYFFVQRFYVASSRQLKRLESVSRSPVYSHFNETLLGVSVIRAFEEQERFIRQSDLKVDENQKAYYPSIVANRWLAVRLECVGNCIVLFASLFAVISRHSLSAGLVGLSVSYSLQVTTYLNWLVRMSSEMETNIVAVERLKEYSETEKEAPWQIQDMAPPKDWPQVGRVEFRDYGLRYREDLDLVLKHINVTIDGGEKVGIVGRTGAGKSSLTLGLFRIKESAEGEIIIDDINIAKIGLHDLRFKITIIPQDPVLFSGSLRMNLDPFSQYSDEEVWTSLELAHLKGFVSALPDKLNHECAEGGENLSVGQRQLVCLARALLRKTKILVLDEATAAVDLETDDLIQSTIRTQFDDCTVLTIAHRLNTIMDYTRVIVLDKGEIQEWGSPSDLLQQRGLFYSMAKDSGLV
Procedure: All values reported as the mean ± standard error (SE) of three separate measurements. The statistical significance was calculated using unpaired, parametric, two-sided t tests. Labels: not significant (n.s.), P < 0.05 (*), P < 0.01 (**), P < 0.001 (***) P < 0.0001 (****). […] Rates of ATP hydrolysis were normalized to maximal activity. Data were fit to a modified version of the quadratic binding equation to account for free ligand depletion (Materials and Methods).
All protein purification steps were performed on ice or at 4 °C. Thawed cell pellets were resuspended with a handheld homogenizer (Polytron PT1200E) in a solution of 300 mM NaCl, 50 mM HEPES pH 8.0, 2 mM MgCl2, 2 mM dithiothreitol (DTT), and 20% glycerol with DNase I and protease inhibitors (1 µg/mL aprotinin, 0.6 mM benzamidine, 1 µg/mL leupeptin, 1 µg/mL pepstatin A, 1 mM phenylmethylsulfonyl fluoride, and 100 µg/mL soy trypsin inhibitor). Membranes were solubilized for 1.5 h by addition of 2% lauryl maltose neopentyl glycol and 0.2% cholesteryl hemisuccinate, after which insoluble material was removed by centrifugation for 40 min at 75,000 × g. Supernatant was mixed with GFP nanobody-conjugated Sepharose 4 Fast Flow resin (GE Healthcare) for 1.5 h, after which the slurry was packed into a column and washed with a solution of 0.06% digitonin, 150 mM NaCl, 50 mM HEPES pH 8.0, 2 mM MgCl2, 2 mM DTT, and 5% glycerol. PreScission protease was added to the column at a concentration of 0.35 mg/mL for 3 h to liberate MRP1 or Pgp from the GFP-nanobody resin. Eluate was passed through a glutathione sepharose resin to remove PreScission protease and concentrated with a 100 kDa molecular weight cutoff centrifugal filter. Concentrate was loaded onto a GE Healthcare Superose 6 size exclusion column equilibrated in 0.06% digitonin, 150 mM KCl, 50 mM Tris pH 8.0, 2 mM MgCl2, and 2 mM DTT. Peak fractions were collected, pooled, and concentrated for ATPase assays or freezing cryo-EM grids.
ATPase activity was measured by recording the rate of NADH consumption during ATP regeneration from ADP. […] ATPase activity was quantified by calculating the mean and SEM of at least three separate measurements from a single protein purification for each of bMRP1, hMRP1, and hPgp. Data were fit by nonlinear regression to the Michaelis–Menten equation using GraphPad Prism (Dotmatics).
0 = [R]tot × [L]tot - ([L]tot + [R]tot + Ki)[R·L] + [R·L]^2,
Range normalization factor = (Vmax - Vmin)

Pgp = assay: ATPase activity of detergent-solubilized Pgp, inhibition by CPI1; assay type: biochemical, human; conditions: Pgp 0.5 µM, 4 mM ATP, CPI1 25-fold molar excess; mean ± SE of three separate measurements
Procedure: (§1) Fig. 1. Identification of an MRP1-specific inhibitor. (A) Selection strategy for novel cyclic peptide MRP1 ligands. eGFP: enhanced green fluorescent protein; Nb: anti-eGFP nanobody. (B) CPI1 composition. The first residue in the sequence (Ac^DY1, yellow) is covalently bonded to the 17th residue (C17, green) via a thioether linkage. […] All values reported as the mean ± standard error (SE) of three separate measurements. The statistical significance was calculated using unpaired, parametric, two-sided t tests. Labels: not significant (n.s.), P < 0.05 (*), P < 0.01 (**), P < 0.001 (***) P < 0.0001 (****). […] (D) Dose–response curves of the basal and LTC4-stimulated ATPase activity of bMRP1. Rates of ATP hydrolysis were normalized to maximal activity. Data were fit to a modified version of the quadratic binding equation to account for free ligand depletion (Materials and Methods).
(§2) Bovine and human MRP1, as well as human Pgp, were expressed and purified as described previously. […]
(§3) ATPase activity was measured by recording the rate of NADH consumption during ATP regeneration from ADP. […] NADH consumption was measured by monitoring the rate of NADH fluorescence depletion (λex/λem 340/445 nm) using an Infinite M1000 microplate reader (Tecan) at 28 °C. […]

hMRP1 = assay: ATPase activity of detergent-solubilized hMRP1, inhibition by CPI1; assay type: biochemical, human; conditions: Fig. 1C: 1 µM hMRP1, 4 mM ATP, CPI1 25-fold molar excess
Procedure: as §1, §2, §3

P-glycoprotein (Pgp) = conditions: ref [26]–[28]; cited from earlier work
Description: Abrogation of cancer drug resistance by pharmacological inhibition of MRP1 has long been pursued ([10]). […] However, the majority of available MRP1 inhibitors are repurposed from other drug discovery efforts and thus have inherent off-target issues ([24], [25]).

Compound | Ki (bMRP1) [nM] | affinity of CPI1 for MRP1 (bMRP1; approximate, Fig. 1D, compared with LTC4) | inhibition of ATPase activity (in words) (bMRP1; bMRP1, Fig. 1C: 1 µM bMRP1, 4 mM ATP, CPI1 25-fold molar excess) | mode of inhibition (in words) (bMRP1; with respect to LTC4, inferred from shared binding site in structure and affinity) | inhibition of Pgp (in words) (Pgp) | inhibition of ATPase activity (in words) (hMRP1) | inhibition of P-glycoprotein (in words) (P-glycoprotein (Pgp))
CC(C)C[C@@H]1NC(=O)[C@H](CC(N)=O)NC(=O)CNC(=O)[C@H](Cc2c[nH]c3ccccc23)NC(=O)[C@H](Cc2ccccc2)NC(=O)[C@@H](Cc2ccc(O)cc2)NC(=O)CSC[C@@H](C(=O)O)NC(=O)[C@H]([C@@H](C)O)NC(=O)[C@H](CO)NC(=O)[C@H](CC(=O)O)NC(=O)[C@H](Cc2ccccc2)NC(=O)[C@H](CCC(N)=O)NC(=O)[C@H](CCC(=O)O)NC(=O)[C@H](Cc2ccc(O)cc2)NC(=O)[C@H](Cc2ccc(O)cc2)NC(=O)[C@H](Cc2c[nH]c3ccccc23)NC(=O)[C@H](Cc2c[nH]cn2)NC1=O [CPI1] ({CH2CO}-[dY]FWGNLHWYYEQFDSTC-OH; thioether N-17; C-terminus assumed) | 70 ± 29 | ~ 100 nM | inhibited the ATPase activity of both human and bovine MRP1 | potent competitive inhibitor of LTC4 | only modest inhibition of Pgp when applied at a 25-fold molar excess; also recorded: minimal inhibition of a related multidrug transporter P-glycoprotein | robust inhibition of hMRP1 ATPase activity | 
O=C(NCCCN1CCOCC1)c1cnn2c(-c3ccccc3)cc(-c3ccccc3)nc12 [Reversan] |  |  |  |  |  |  | also inhibit P-glycoprotein
